Consider five compounds from paper PMC11966042, “Pharmacological evaluation of drug therapies in Aicardi-Goutières syndrome: insights from patient-derived neural stem cells” (Frontiers in Pharmacology, 2025).

Where a name gives a salt, the structure may show the parent alone.

The test system of one data set is AGS7-NSC. As to the kind of experiment: MTT cytotoxicity assay, 72 h drug exposure, AGS7-NSCs. In kind it is cell-based, human. As for the experimental part:
(§1) For NSCs differentiation, iPSCs colonies were seeded in StemMACS iPS-Brew XF medium on diluted Geltrex coated 6-wells plates at a density of 3 × 10^5 cells/well and allowed to recover for 24 h at 37°C 5% CO2, 20% O2. Then, the medium was change to PSC Neural Induction medium (A1647801, Gibco, ThermoFisher Scintific, Italy) and, for 7 days, medium was replaced every other day, according to standard protocol (ThermoFisher Scientific, MAN0008031).
(§2) Patient-specific NSCs and the control BJ-NSCs were maintained in a medium consisting of equal parts of PSC Neural Induction Medium and Advanced DMEM/F12, on diluted Geltrex matrix coated plates (1:100 Geltrex in DMEM/F12 medium). Cells were passaged at 80% confluence: after 5 min exposure to StemPro Accutase Cell Dissociation Reagent (A11105, Gibco, ThermoFisher Scientific, Italy) at 37°C, cells were gently detached with PBS (D8537, Sigma-Aldrich, Italy) and filtered with a 100 μm cell strainer (08-771-19, FisherScientific, Italy) before seeding on diluted Geltrex matrix coated plates.
(§3) The cytotoxic effect of drugs on iPSCs and NSCs was also determined by MTT assay. iPSCs and NSCs were cultured on a Geltrex coated 96-well plate at different cell densities according to their different cell growth rate, to obtain similar cell densities at 72 h. AGS2 patient-derived iPSCs were seeded at 3.0 × 10^4 cells/well in a final volume of 100 µL while all the other iPSCs tested (AGS1, AGS7 and BJ-iPSCs) were seeded at 1.0 × 10^4 cells/well; all NSCs were seeded at 1.0 × 10^4 cells/well. After 24 h of incubation at 37°C, 5%CO2, 20% O2, the cultural medium was replaced with a drug-containing medium at serially diluted concentrations (Supplementary Table S1). Experiments were repeated at least three times, and each experimental condition was tested in triplicate. Treated cells were incubated for 72 h at 37°C, adding MTT in each well (0.5 mg/mL) 4 hours before the end of the incubation; cells were then lysed with 100 µL dimethyl sulfoxide (DMSO, 472,301, Sigma-Aldrich, Italy). Absorbance was measured at 540–630 nm wavelength (Fluorostar Omega, BMG, Labtech Germany).
(§4) Cell metabolic activity was calculated as % cell activity = (absorbance treated/absorbance control)*100, and considered as a measurement of cell viability. Percentages were graphically reported as a function of the drug concentrations used, expressed in molarity and reported in a logarithmic scale (Log10), obtaining a sigmoidal dose-response curve.
(§5) Data obtained from the MTT assay and proliferation assay are presented as mean ± standard error (SE); results were analyzed using a nonlinear regression and half maximal […] concentration (IC50) was determined from the dose-response curve. Two-way analysis of variance (ANOVA) followed by Bonferroni’s post-test was used to compare the cell viability percentage of AGS- versus the cell viability percentage of control cells BJ.

The next data set concerns AGS1-NSC. Briefly: MTT cytotoxicity assay, 72 h drug exposure, AGS1-NSCs. It counts as cell-based, human. As to conditions: MTT, 72 h. As for the experimental part:
as §1, §2, §3, §4, §5

The next data set concerns AGS2-NSC. As to the kind of experiment: MTT cytotoxicity assay, 72 h drug exposure, AGS2-NSCs. It counts as cell-based, human. As for the experimental part: as §1, §2, §3, §4, §5
The test system of another data set is NSCs. As to the kind of experiment: MTT cytotoxicity assay, 72 h drug exposure, NSCs (AGS patient-derived and BJ lines together). In kind it is cell-based, human. As for the experimental part:
as §1
Patient-specific NSCs and the control BJ-NSCs were maintained in a medium consisting of equal parts of PSC Neural Induction Medium and Advanced DMEM/F12, on diluted Geltrex matrix coated plates (1:100 Geltrex in DMEM/F12 medium).
AGS2 patient-derived iPSCs were seeded at 3.0 × 10^4 cells/well in a final volume of 100 µL while all the other iPSCs tested (AGS1, AGS7 and BJ-iPSCs) were seeded at 1.0 × 10^4 cells/well; all NSCs were seeded at 1.0 × 10^4 cells/well. After 24 h of incubation at 37°C, 5%CO2, 20% O2, the cultural medium was replaced with a drug-containing medium at serially diluted concentrations (Supplementary Table S1). Experiments were repeated at least three times, and each experimental condition was tested in triplicate. […] Absorbance was measured at 540–630 nm wavelength (Fluorostar Omega, BMG, Labtech Germany).
as §4
Two-way analysis of variance (ANOVA) followed by Bonferroni’s post-test was used to compare the cell viability percentage of AGS- versus the cell viability percentage of control cells BJ.

Data set [1] can be described thus: MTT cytotoxicity assay, 72 h drug exposure, AGS1-NSCs. It counts as cell-based, human. Conditions: human. As for the experimental part:
as §1, §2, §3, §4, §5

For data set [2], the system named is iPSCs. As to the kind of experiment: MTT cytotoxicity assay, 72 h drug exposure, iPSCs (AGS patient-derived and BJ lines together). In kind it is cell-based, human.
Protocol: IPSCs reprogrammed from the commercial cell line BJ (human foreskin fibroblasts from a neonatal male, ATCC CRL-2522, American Type Culture Collection, Manassas, VA) were used as the control cell line ([Ali et al., 2020]).
Patient-specific iPSCs and the control BJ-iPSCs were maintained in StemMACS iPS-Brew XF (130-104-368, Miltenyi Biotec, Italy) on diluted Geltrex matrix (A1413202, Gibco, ThermoFisher Scientific, Italy) coated plates (1 mL/well in 6-well plate, 833,920 Sarstedt, Italy). Geltrex was diluted at a ratio of 1:100 in DMEM/F12 medium (D8062, Sigma-Aldrich, Italy). Cells were passaged at 80% confluence: after 2 min exposure to Versene (0.48 mM, 15040066, Gibco, ThermoFisher Scientific, Italy) cells were gently detached using medium. Since iPSCs grow in clusters, the standard protocol of passaging used for long-term iPSCs cultures avoids the complete breakup of clusters. In contrast, when single-cell culturing was required to perform cytotoxicity assays, iPSCs were treated according to the same procedure but were exposed to Versene for 5–6 min. After each seeding, 10 μM Rho-associated, coiled-coil containing protein kinase (ROCK) inhibitor (Y-27632, 130-103-922, Miltenyi Biotec, Italy) was added to the medium for 24 h to facilitate cells adhesion.
Cell metabolic activity was calculated as % cell activity = (absorbance treated/absorbance control)*100, and considered as a measurement of cell viability. […]
For data set [3], the system named is iPSCs. Also on record: method as in Genova et al., 2020. Conditions: AGS- and BJ-iPSCs; ref Genova et al., 2020; cited from earlier work.

Regarding `C[C@@H]1CCN(C(=O)CC#N)C[C@@H]1N(C)c1ncnc2[nH]ccc12` [tofacitinib], the “concentration at which cell viability increased compared to BJ-NSCs” value in the data set with AGS7-NSC is over 10 µM. In addition, the “concentration at which cell viability increased versus BJ-NSCs” value was found to be 10 µM with AGS1-NSC (AGS1-NSCs) and 2.5 µM in the data set with AGS2-NSC (AGS2-NSCs).

For `Nc1nc2nc[nH]c2c(=S)[nH]1` [thioguanine], the IC50 in the data set with AGS7-NSC (Homo sapiens, read-out: IC50 (mean ± SE)) came out at 14.1 ± 4.4 µM; in the data set on AGS2-NSC (Homo sapiens, AGS2-NSC, read-out: IC50 (mean ± SE)) it was 4.5 ± 2.8 µM. In addition, in the data set with NSCs (AGS-derived NSCs), the “cell survival (in words)” value is given as “dose-dependent decrease in cell survival”. Moreover, in data set [1] (AGS1-NSC, as restated in the discussion, read-out: viability after 72 h of treatment), the viability at 72 h was 70%. Moreover, in data set [1] (AGS1-NSCs at 20 μM, MTT, 72 h), the viability at 72 h, 20 µM came out at 74%. Further, the “IC50 ± SE” value in the data set on AGS1-NSC (AGS1-NSC) is “IC50 could not be calculated”.

As for `Nc1ccn([C@@H]2CS[C@H](CO)O2)c(=O)n1` [lamivudine], in the data set with iPSCs [2], the “cytotoxicity / cell viability (in words)” value is listed as “did not show cytotoxicity”. Moreover, the “viability compared with BJ-NSCs (in words)” value in the data set on AGS2-NSC (AGS2-NSCs at the higher concentration tested, 20 μM) was “significantly lower than BJ-NSCs”.

Take `Nc1nc(NC2CC2)c2ncn([C@H]3C=C[C@@H](CO)C3)c2n1` [Abacavir sulfate, abacavir sulfate]: the “cytotoxicity / cell viability (in words)” value with iPSCs [2] was “did not show cytotoxicity”.

For the compound `C[C@@H]1C[C@H]2[C@@H]3CCC4=CC(=O)C=C[C@]4(C)[C@@]3(F)[C@@H](O)C[C@]2(C)[C@@]1(O)C(=O)CO` [Dexamethasone], in the data set with NSCs (NSCs), the “cytotoxicity / cell viability (in words)” value is on record as “not cytotoxic”. For the same compound, the “cytotoxicity (in words), previous results” value in the data set on iPSCs [3] was “lack of cytotoxic activity”.
